Measured values published in patent publication US9107964B2, “Radioactive fluorine-labeled compound” (NIHON MEDI-PHYSICS CO., LTD., priority 2011, dated 2015).

Tests used:
[1] = tested on: mouse-derived breast cancer cell line (EMT6) tumor-bearing model mice; experiment: Measurement of SUV within tumor and calculation of tumor/normal tissue ratio (Example 11); settings: 60 minutes after administration
Method: The tumor-bearing model mouse thus prepared was placed under isoflurane anesthesia, and about 20 MBq of these sample solutions was administered via a tail vein. static imaging was carried out using a PET system for animals (model: eXplore Vista, manufactured by GE) at 60 minutes after administration. […] Data thus collected were reconstituted by the OSEM method to thus form an image, and a coronal tomographic image and an axial tomographic image were formed using image analysis software.
The maximum value for SUV within the tumor was measured using the axial tomographic images acquired in the Example 10. For all slice planes of an axial tomographic image where the tumor was visualized, a region of interest (hereinafter, called an ROI) was set for the entire tumor and measured. The axial tomographic image was formed from 61 slice planes, and the SUV that was the highest among the measured slice planes was defined as a maximum value for SUV 60 minutes after administration (SUV maximum value in tumor). […] The average value for signal intensity within the ROI was determined, and the average value for values measured for the slice planes was defined as the average value for SUV in normal tissue. The tumor/normal tissue ratio was calculated using the following equation (1) and used as a […] indicator with respect to contrast between the tumor and normal tissue.

[2] = tested on: hypoxic region of EMT6 tumor (pimonidazole-positive site); experiment: Localization of accumulation within tumor by autoradiography versus pimonidazole immunohistochemical staining; assay type: in vivo, mouse (Balb/c nu/nu); settings: autoradiography and immunohistochemical staining of the same tumor section
Method: In order to evaluate whether or not the compound related to the present invention could visualize a hypoxic region of a tumor, the following experiment was carried out using compounds 1 to 3 and [^18F]FMISO.
Localization of accumulation of each of the labeled compounds within a tumor was confirmed by autoradiography. After PET imaging of a tumor-bearing model mouse prepared by the method of […] was completed, it was sacrificed by blood-letting by cardiocentesis, immediately thereafter the tumor was sampled, and tissue sections (thickness: 10 μm) were prepared using a cryostat (model: CM3050, manufactured by Leica). […] After exposing an imaging plate to this tumor tissue section for 8 to 10 hours, an image was captured using a bioimaging analyzer (model: BAS-2500, manufactured by FUJIFILM). The image thus captured was subjected to image analysis using image analysis software.
Separately, as a method for confirming a hypoxic region within a tumor, the same section after decay of radioactivity was subjected to immunohistochemical staining using pimonidazole that is a hypoxic marker, by the following procedure. […]

[3] = tested on: hypoxic region of EMT6 tumor (pimonidazole-positive area); experiment: Correlation between autoradiographic signal intensity (PSL value) and pimonidazole-positive area (Example 13); assay type: in vivo, mouse (Balb/c nu/nu); settings: tumor tissue sections after PET imaging
Method: In order to evaluate whether or not the compound related to the present invention can quantitatively visualize a hypoxic region of a tumor, the following experiment was carried out using compounds 1 to 3 and [^18F]FMISO.
Using a microscope system (model: BZ-9000, Keyence Corporation) a high magnification image of a pimonidazole-positive site was acquired using the entire image of a pathology image obtained by immunohistochemical staining in the Example 12 and a 10× objective lens. The high magnification image was formed with respect to a randomly selected image region. At the same time the image acquisition site was recorded as a navigation image by use of the navigation function of the microscope system. The acquired high magnification image was subjected to image processing, and a pimonidazole-positive area present in the high magnification image was determined.
The autoradiographic image and the stained image of each labeled compound used were those acquired in the Example 12. The resolution of the navigation image was made to match the resolution of the autoradiographic image, and the geometrical positions of two images were aligned using image analysis software.
In the autoradiographic image, an ROI was set for the site that coincided with the high magnification image acquisition site, and the PSL value (Photo-Stimulated Luminescence value) of the ROI was determined. Furthermore, an ROI was set for a site of the same image that contained no sample, and the PSL value thereof was defined as the background. The PSL value of the background was subtracted from the PSL value of the high magnification image acquisition site to obtain the net PSL value. The hypoxic marker pimonidazole-positive area was plotted on the abscissa and the PSL value in the autoradiographic image on the ordinate, and the correlation factor was determined. This series of operations was carried out for each of the labeled compounds.

[4] = tested on: EMT6 tumor-bearing model mice; experiment: Biodistribution in tumor and organs of tumor-bearing mouse (Example 14); assay type: in vivo, mouse (Balb/c nu/nu); settings: mean
Method: The biodistribution of compounds 1 to 3 and [^18F]FMISO in a tumor and each of the organs of a tumor-bearing mouse was measured.
Tumor-bearing model mice used in this experiment were the same as those prepared in Example 10, and 3 or 4 cases that had attained a tumor volume of 200 to 400 mm^3 were selected from each group. The tumor-bearing model mouse was placed under isoflurane anesthesia, pimonidazole that is a hypoxic marker, was administered via a tail vein, and at 10 minutes thereafter, the respective labeled compound was administered. The tumor-bearing model mouse was sacrificed at 60 minutes and 120 minutes after administration. All of the tumor-bearing model mice were sacrificed by blood-letting from the abdominal aorta or by cardiocentesis, and dissection was carried out immediately thereafter. Other than the tumor, the blood, heart, lung, stomach, liver, gallbladder, kidney, small intestine and large intestine, muscle, and urine were sampled, and the other tissues were defined as the remaining whole body. After the weight of each tissue sampled was measured, the amount of radioactivity of the tissue was measured using a gamma counter, and the biodistribution of each of the labeled compounds was compared by converting it into % ID/g (% injection dose/g organ) of each tissue.
In order to examine a hypoxic state within the tumor, immunohistochemical staining of the sample tumor was carried out so as to ascertain whether or not the interior of the tumor was hypoxic. The sampled tumor was fixed using a 20% formalin buffer, and a paraffin block was prepared using an automatic paraffin-embedding apparatus (model: VIP-5-Jr-J0, Sakura Finetek). A slice (thickness: 3 μm) was prepared by means of a microtome (model: Tissue-Tek Feather Trustome, Sakura Finetek). Immunohistochemical staining was carried out by the same method as in Example 12.

[5] = 60 minutes after administration
[6] = 120 minutes after administration

## O=[N+]([O-])c1nccn1CC(O)C[18F] (centres unmarked) [[^18F]FMISO, [^18F]fluoromisonidazole, reference compound]
[1]; about 20 MBq via tail vein, axial PET image, ROI entire tumor
  SUV maximum value (in tumor): 0.98
[1]; SUV maximum in tumor versus average SUV of left body side (lung and muscle)
  Tumor/normal tissue ratio: 2.03
[2]
  Coincidence of accumulation site with localization of pimonidazole (hypoxic marker): did not visually coincide
[3]
  Correlation coefficient (pimonidazole-positive area vs PSL value in autoradiographic image): 0.55
[4]; [5]
  Blood: 4.45 % ID/g
  Gall bladder: 12.92 % ID/g
  Heart: 5.12 % ID/g
  Kidney: 8.52 % ID/g
  Large intestine: 13.76 % ID/g
  Liver: 5.84 % ID/g
  Lung: 4.41 % ID/g
  Muscle: 3.80 % ID/g
  Small intestine: 5.76 % ID/g
  Stomach: 4.17 % ID/g
  T/B (tumor/blood ratio): 1.06
  T/M (tumor/muscle ratio): 1.24
  Tumor: 4.71 % ID/g
  Urine: 34.98 % ID
[4]; [6]
  Blood: 2.26 % ID/g
  Gall bladder: 43.43 % ID/g
  Heart: 3.33 % ID/g
  Kidney: 3.89 % ID/g
  Large intestine: 21.16 % ID/g
  Liver: 3.85 % ID/g
  Lung: 2.69 % ID/g
  Muscle: 2.29 % ID/g
  Small intestine: 4.63 % ID/g
  Stomach: 1.85 % ID/g
  T/B (tumor/blood ratio): 1.91
  T/M (tumor/muscle ratio): 1.88
  Tumor: 4.28 % ID/g
  Urine: 41.45 % ID
